# According to paper PMC12974487, “Inhibition of FicD-mediated AMPylation and deAMPylation by isoprenoid diphosphates” (Proceedings of the National Academy of Sciences of the …, 2026):
# Changes are numbered by the printed parent chain. Values joined by “and” are separate entries in the source; they are usually repeats but may differ in a detail not shown here. Equal values may be shown once. Read-outs that look alike come from different tables or passages of the source.
# Experiments:
# Format in all cases: binding
# FicD^L258D [1] = target: T1, FicD^L258D (Homo sapiens, UniProt Q9BVA6, L258D); test: Differential scanning fluorimetry (DSF) thermal shift with FicD^L258D
# T1 construct: soluble ER luminal domain (residues 105 to 458) of wild-type human FicD and three mutants; 6xHis-Sumo (N, cleaved yes); made in house; host or cells: Rosetta(DE3) E. coli
# T1 sequence (Q9BVA6 105-458 L258D): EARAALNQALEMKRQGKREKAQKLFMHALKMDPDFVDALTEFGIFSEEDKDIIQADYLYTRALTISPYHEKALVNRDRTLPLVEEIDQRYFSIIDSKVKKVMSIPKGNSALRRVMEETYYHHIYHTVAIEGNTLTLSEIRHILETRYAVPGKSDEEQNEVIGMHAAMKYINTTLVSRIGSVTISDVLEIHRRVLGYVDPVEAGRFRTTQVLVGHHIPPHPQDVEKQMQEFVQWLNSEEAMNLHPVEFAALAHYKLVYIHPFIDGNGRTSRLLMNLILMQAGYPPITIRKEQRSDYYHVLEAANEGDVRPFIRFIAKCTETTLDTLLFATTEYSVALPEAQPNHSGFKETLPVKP
# Description: Differential Scanning Fluorimetry
# Thermal shift assays were performed in Biorad CfX384 Touch Real-Time PCR Detection System […]
# Reactions contained 50mM HEPES pH 7.4, 200mM NaCl, 200mM KCl, 200uM DTT, 5X Invitrogen Sypro Orange (Cat no. S6650), 8-9μM protein, and indicated nucleotide, cofactor, or small molecule in a total volume of 20uL. For every experiment ‘no protein’ controls were also included with the same reaction conditions. All reactions were performed in technical triplicates. Sealed plates containing reaction mixes were centrifuged for 1-5 min at 1000 RPM prior to temperature scanning (FRET channel), which was performed from 6°C […]
# DSF data was analyzed with traditional methods automated in a Python package (https://pypi.org/project/instawell/). Briefly, for each temperature, the RFU values of technical triplicates are averaged. For each timepoint, the background fluorescence was subtracted using the RFU values of the ‘no protein’ control. […]
# calculated. The melting temperature (Tm) is defined as the first derivative peak value. Data
# FicD^L258D [2] = target: T1, FicD^L258D; test: Isothermal titration calorimetry (ITC) with Δ104hFicD^L258D; conditions: 4 mM MgCl2, 20 °C, 1σ error interval in parenthesis
# Text: To further support this notion, we used Isothermal Titration Calorimetry (ITC) to determine the Kd of FPP binding. […] In these experiments, the interaction between FPP and Mg^2+ generated endothermic peaks that interfered with detecting the interaction between FPP, Mg^2+, and FicD (Fig. 3, Upper). The stoichiometry of FPP binding to FicD was consistently <0.85, which may indicate that Mg^2+ was not saturating. Because the endothermic interaction between Mg^2+ and FPP limited the quantity of MgCl2 we could add, the measured Kd could be larger than the true value.
# Fig. 3. ITC with FicD and Farnesyl-pyrophosphate. Representative ITC thermogram for FPP binding to Δ104hFicD^L258D (Upper). […] Dissociation constants (Kd) of individual replicates and global fitting of triplicate isotherms are reported with 1σ error intervals in parenthesis. TEXT PRINTED IN THE PICTURE: no label printed: Kd (nM): 32.3 (15.6, 54.9) (Replicate 1); Kd (nM): 25.6 (10.1, 47.7) (Replicate 2); Kd (nM): 45.2 (29.4, 68.8) (Replicate 3); Kd (nM): 60.3 (23.1, 126.3) (Global) DOUBTS OF THE COPYIST ABOUT THIS PICTURE: The picture prints no substance label; the table rows are replicates and a global fit of one measurement, so all four Kd values are given under one unlabeled substance. […]
# Isothermal Titration Calorimetry
# Proteins were dialyzed against 25mM HEPES pH 7.4/100mM KCl/10% glycerol prior to titration.
# Dialyzed proteins were then spun down at 21,000G for 15 minutes at 4C to remove trace insoluble material. The protein concentration was measured spectrophotometrically and then diluted to working concentration with 25mM HEPES pH 7.4/100mM KCl/10% glycerol. MgCl2 was added to proteins to a final concentration of 4mM. ITC experiments were performed in a Micro-Cal PEAQ-ITC (Malvern Panalytical, Worcestershire, UK) calorimeter with a stirred 206.2 μL reaction cell held at 20 °C. 250μM FPP was titrated into 25uM Δ104hFicL258D with 750rpm stirring. The first injection was 0.5 μL, followed by twenty 1.9 μL injections. ITC data were integrated and baseline corrected using NITPIC 2.1.5 (10, 11). Integrated data was globally analyzed in SEDPHAT 15.b (12) using a model considering a single class of binding sites. […]
# 10% Lithium dodecyl sulfate, 50% glycerol, 50mM DTT, 0.05% Bromophenol blue) and then heated […]
# For deAMPylation assays with FicD and BiP, Δ26hBiPT229A was in-vitro AMPylated by […]
# 5mM MgCl2, 500uM ATP, 0.5% CHAPS, 1mM DTT. After one hour of incubation at 30-37C, the entire reaction mix was transferred into an Amicon 0.5mL 50kDa MWCO concentrator (cat no.
# 7.4/150mM NaCl/10% glycerol/1mM DTT was added to the concentrated AMPylation reaction and then spun down again at 14,000 x g at 4C for 5-10 minutes. This step was repeated four times to buffer exchange AMPylated Δ26hBiPT229A.
# Δ104hFicDWT and Δ26hBiPT229A-AMP were combined at a ratio of 1:80 in buffer containing 25mM HEPES pH 7.4, 100mM KCl, 5mM MgCl2, 1mM DTT and the indicated small molecule where applicable. Reactions were incubated at 37C for 1 hour and stopped by the addition EDTA. 5X SDS sample buffer (250mM Tris pH 6.8, 10% Lithium dodecyl sulfate, 50% glycerol, 50mM DTT, 0.05% Bromophenol blue) was then added to the reactions and reactions were heated for 5 minutes at […]
# For in-vitro AMPylation assays with VopS and CDC42, Δ30VopS and GST-CDC42 – provided by a previous lab member – were combined at a 1:80 molar ratio in 50mM Tris pH 7.4/100mM NaCl/1mM DTT in the presence of GPP or FPP, where applicable. […]
# FicD^E234G = target: T2, FicD^E234G (Homo sapiens, UniProt Q9BVA6, E234G); test: MIDAS metabolite screen, FicD^E234G; conditions: cutoff Q < 0.05 and |Log2 corrected fold change| > 2, metabolites 5 µM
# T2 construct: soluble ER luminal domain (residues 105 to 458) of wild-type human FicD and three mutants; 6xHis-Sumo (N, cleaved yes); made in house; host or cells: Rosetta(DE3) E. coli
# T2 sequence (Q9BVA6 105-458 E234G): T1 sequence (Q9BVA6 105-458 L258D) with E130G, D154L
# FicD^WT = target: T3, FicD^WT (Homo sapiens, UniProt Q9BVA6); test: MIDAS equilibrium dialysis/mass spectrometry metabolite screen, FicD^WT; conditions: cutoff Q < 0.05 and |Log2 corrected fold change| > 2, metabolites 5 µM
# T3 construct: soluble ER luminal domain (residues 105 to 458) of wild-type human FicD; 6xHis-Sumo (N, cleaved yes); made in house; host or cells: Rosetta(DE3) E. coli
# T3 sequence (Q9BVA6 105-458): T1 sequence (Q9BVA6 105-458 L258D) with D154L
# FicD^L258D [3] = target: T1, FicD^L258D; test: MIDAS metabolite screen, FicD^L258D; conditions: cutoff Q < 0.05 and |Log2 corrected fold change| > 2, metabolites 5 µM
# Text: To identify small-molecule metabolite interactions with FicD, we applied an unbiased high-throughput screening approach known as MIDAS ([44]). Given the high concentrations of protein required for MIDAS screening, we purified the soluble ER luminal domain (residues 105 to 458) of wild-type human FicD and three mutants FicD^E234G, FicD^L258D, and FicD^H363A for screening (Fig. 1A). These mutants were selected based on their well-established biochemical features ([23], [24], [31]). All three are predicted to enhance detection of protein–metabolite interactions (PMIs) relative to FicD^WT through increased affinity for nucleotide substrates (FicD^E234G), improved solubility (FicD^L258D), and loss of catalytic turnover (FicD^H363A) (Fig. 1A). To decrease the potential for nonspecific small-molecule binding, we ensured the purity of our FicD proteins (SI Appendix, Fig. S1 A and B). As reported by other investigators ([24], [31]), we observe an increase in elution volume of the FicD^L258D mutant, consistent with its monomerization (SI Appendix, Fig. S1C).
# Out of the 602 naturally occurring human metabolites in the MIDAS library, we applied a significance cutoff (q value < 0.05) to identify 12 PMIs with a Log2 (corrected fold change) of >2 and two PMIs with a Log2 (corrected fold change) <-2 in the FicD^WT screen (Fig. 1B and SI Appendix, Table S2). Hits were additionally triaged based on detection of multiple adducts of the metabolite in a single dataset (FPP and […] in Fig. 1B) and identification of the same metabolites across three or more of the FicD construct screens (Fig. 1C). Three chemical classes passed this initial triage: adenosine nucleotides, isoprenoid diphosphates, and thyroid hormone intermediates (Fig. 1 B and C and SI Appendix, Tables S2–S5).
# 22°C. Induced cultures were then harvested by centrifugation at 8000G for 15 minutes at 4°C and […]
# Bacterial pellets were resuspended in 30-50mL of 50mM Tris pH 7.4/150mM NaCl/10% glycerol with one Roche cOmplete EDTA-Free Protease inhibitor cocktail tablet (cat no. COEDTAF-RO).
# Triton-X100 to a final concentration of 0.2%, Chicken-egg lysozyme to a final concentration of 0.4ug/mL, and 2-5uL of Millipore Benzonase Nuclease (cat no. 70664) were added to bacterial suspension prior to sonication at 40-50% amplitude for 1-3 minutes in pulses of 5 seconds on and 30 seconds off on ice with a Sonics VCX 750 Ultrasonicator. Bacterial lysate was then clarified by centrifugation at 30,000 x g for 30 minutes at 4°C.
# Clarified lysate was rotated with Qiagen NiNTA agarose beads (cat no. 30210) for 1-2 hours at 4°C. The beads were then transferred to a 15mL conical vial, resuspended in 10-15mL wash buffer (50mM Tris pH 7.4/150mM NaCl/10% glycerol/0.2% Triton-X 100/10mM imidazole), and spun down at 1000G for 1 minute at 4°C, after which the supernatant was aspirated from the beads. This washing step was repeated 2-4 times to rinse bacterial lysate from the beads prior to on-column washing. The beads were then transferred to BioRad Econopac 20mL bed volume column (cat no.
# 7321010) and washed with 10-15mL of wash buffer (repeated at least three times), 10mL of ATP wash (50mM Tris pH 7.4/300mM KCl/10mM MgCl2/500uM ATP, repeated once), and finally with 10-15mL wash buffer without Triton-X 100 (repeated at least three times). Protein was eluted in 500μL-1mL elution buffer (50mM Tris pH 7.5/150mM NaCl/10% glycerol/0.5% CHAPS). […]
Compound,"EC50 (FicD^L258D [1]; FicD^L258D, 5 mM MgCl2, read-out: EC50 of DSF dose-response (ΔTm)) [µM]","Kd (FicD^L258D [2]; read-out: Kd (ITC), Replicate 1) [µM]","Kd (FicD^L258D [2]; read-out: Kd (ITC), Replicate 2) [µM]","Kd (FicD^L258D [2]; read-out: Kd (ITC), Replicate 3) [µM]","Kd (FicD^L258D [2]; read-out: Kd (ITC), global fitting of triplicate isotherms)",MIDAS protein-metabolite interaction (enrichment/depletion) (FicD^E234G),"maximal Tm shift at saturating ligand concentration (FicD^L258D [1]; FicD^L258D, 5 mM MgCl2)",binding to FicD^L258D by DSF (FicD^L258D [1]; absence of MgCl2),binding to FicD^L258D by DSF (FicD^L258D [1]; presence of 5 mM MgCl2),MIDAS protein-metabolite interaction (enrichment/depletion) (FicD^WT),MIDAS protein-metabolite interaction (enrichment/depletion) (FicD^L258D [3])
"CC(C)=CCC/C(C)=C/CC/C(C)=C/CO[P@@](=O)(O)OP(=O)(O)O (stereo in doubt) [FPP, farnesyl-pyrophosphate]",9.6,0.0323,0.0256,0.0452,~0.06 µM and 0.0603 µM and 0.06 µM,,,,,,
deoxyadenosine diphosphate [dADP],,,,,,significantly enriched,~ 11 °C,did not bind,binding,significantly enriched,significantly enriched
